Results: US6482436B1, “Magnetically responsive composition” (FeRx Incorporated, priority 1993, dated 2002)
Converted amounts (≈) assume the structure as drawn.

Legend:
[1] = Adsorption curves and adsorption constants of pharmaceutical agents on iron:carbon carrier particles; format: physicochemical
Description: Adsorption upon the particles of various types of pharmaceutical agents at a range of concentrations of the pharmaceutical agent in the absorption solution was performed to determine the absorption curves and absorption constants for each compound as follows: A 16-mer anti-C-Myc oligonucleotide useful in antisense gene-directed therapy is an all phosphorothioate oligodeoxynucleotide, fluorescein-labeled at 5′ end (Macromolecular Resources, Fort Collins, Colo.). […] Unbound drug in adsorption supernatants was determined from the fluorescein fluorescence (Exc. 495 nm, em. 549 nm) using a standard curve. Hematoporphyrin dihydrochloride (Sigma Chemical, USA, H-1875, Lot #23H0879) is a photosensitizer useful in tumor therapy. The compound accumulates by biological processes in certain types of tumor tissue. Upon exposure to light, such as provided by a laser, the compound undergoes a chemical transformation to produce oxygen singlets that are toxic to cells in which it has accumulated. A stock adsorption solution was prepared and drug concentration was determined by spectrophotometry according to G. Garbo et al. Anal. […] The adsorption equation determined by computer analysis using commercially available software was: […] 6-Mercaptopurine sodium salt (provided by Dr. Gruber, Burroughs Wellcome, Lot #7P2774) is an anti-inflammatory agent. […] Drug concentration in adsorption supernatants was determined by spectrophotometry (standard curve: […] Drug concentrations in adsorption supernatants determined by spectrophotometry yielded the following equation for the concentration curve: […] Drug concentration in adsorption supernatants as determined by spectrophotometry yield the following equation for the concentration curve: […] Concentration was determined by absorbance at 253 nm (λmax=253 nm in saline solution).

[2] = Re binding to a series of carbons (colorimetric Re assay); format: physicochemical; details: ambient temperature
Description: (§1) An adaptation of a colorimetric Re assay used in the field of metallurgy was used to determine the adsorption of the Re onto carrier particles having a 70:30 iron:carbon ratio. In brief, a 0.1 to 0.5 ml sample was placed in a solution containing 1.0 ml of HCl, 1.3 ml of −α furildoxime (6% in acetone), 0.5 ml of 10% stannous chloride and sufficient water to make 5.0 ml. The mixture was heated to 45° C. for 20 minutes and allowed to cool to room temperature. The absorbance of Re in the solution was measured at 532 nm. The sensitivity of the assay was to about 5 mcg Re. […] As with other drugs, the % binding of Re in the adsorption medium decreases as the Re to carbon ratio increases. […] Release over 24 hours of the Re into physiological saline at ambient temperature from the various carbons preloaded with adsorbed Re was 50% by weight.

[3] = Release of adsorbed Re into saline over 24 hours; format: physicochemical
Description: as §1
Less than 10% of the Re was released upon incubation under efflux conditions in saline over 24 hours. The low binding of Re to the carrier particles is consistent with the low binding of other charged, small ionic molecules to activated carbon as compared with the high affinity binding of hydrophobic aromatic molecules. These findings are consistent with use of the carrier particles of the invention with adsorbed Re or Tc as imaging and therapeutic agents.

[4] = Effect of adsorption medium composition on Dox binding to carrier particles; format: physicochemical; details: six test adsorption media; particles first in viscosity agent, Dox/saline added later
Description: Additional studies were conducted to compare the effect of the composition of the adsorption solution on the binding of the Dox to carrier particles having an iron:carbon ratio in the range 60:40 to 80:20. The following six test adsorption media compositions were formulated to provide sufficient viscosity to keep the carrier particles physically separate during adsorption of the Dox. The particles were first placed in the viscosity agent and the Dox/saline solution was later added.
1. 10% mannitol; 2% sodium carboxymethyl cellulose (CMC) (medium viscosity); 2% polyvinyl pyrrolidone (PVP in 50 mM citrate phosphate buffer
2. 5% mannitol; 2% CMC; 2% PVP in 50 mM citrate phosphate buffer.
3. 5% mannitol; 2% CMC; 2% PVP; 5% sorbitol in 50 mM citrate phosphate buffer.
4. 10% mannitol; 1% CMC; 2% PVP (K15) in 10 mM potassium phosphate buffer (pH 7.4).
5. 10% mannitol; 1% sodium CMC; potassium phosphate buffer (pH 7.4).
6. 5% sorbitol; 1% sodium CMC; 2% PVP (K1 5); 5% mannitol; in potassium phosphate buffer (pH 7.4)

tumor cells in culture = test: In vitro cytotoxicity evaluation with magnetic field retention of carrier particles; format: cell-based; details: Homo sapiens; released paclitaxel: with or without magnet
Description: The IC50 for free paclitaxel alone was identical (5 ng/mL) to paclitaxel released from the carrier particles with or without magnet (5 ng/mL).

[5] = system: human squamous carcinoma cell line, SCC-9; test: Long-term CF clonogenic assay; format: cell-based; details: colonies after 2-3 weeks
Description: A separate long-term CF clonogenic assay was evaluated concurrently. In this assay, cells were plated on 35 mm petri dishes and exposed to drug and controls as outlined above. Treated cells were incubated for 2-3 weeks to allow time for colonies to establish. These colonies were fixed in 2% acetic acid and 8% ethanol and stained with crystal violet. The colonies were counted under a Bella Glass Plate Reader.

[6] = system: carcinosarcoma Walker 256; test: Treatment of Walker 256 carcinosarcoma under the tail skin of rats: life span and tumor dissolution; format: in vivo, rats of the Wistar Line; details: group II; water solution i.v. 2 mg/kg during 5 days; versus control group I (21±1.5 days); P<0.05
Description: Tests were carried out on male rats of the Wistar Line (bred at Stolbovaya Station of the USSR Academy of Medical Sciences). The rats were infused with carcinosarcoma Walker 256 under the tail skin. When the tumorous volume averaged 986±98 mm^3 the animals were divided into 4 groups, 10 rats in each. The first group (group I) was a control group, and groups II through IV were experimental groups.
The animals in group II were given intravenous injections of a water solution of rubomicine in the amount of 2 mg/kg of body weight during 5 days (the model of traditional use of such anti-cancerous preparations in clinics). The rats in group III were injected with a suspension of ferrocarbon dispersion produced by the previously known method described in European Patent Office Publication No. 0 451 299 A1. The particles comprised iron/carbon in a volume percent ratio of 60:40. The dosage of ferrocarbon particles was 160 mg/kg of body weight, and the dosage of adsorbed rubomicine thereon was 3.2 mg/g of particles. This suspension was injected into the tail vein after placing on the surface of the tumor a permanent magnet with a magnetic field intensity of 6000 oersteds. Localization of the suspension in the tumorous growth zone under control of the externally placed magnetic field was monitored by x-ray pictures. […]

[7] = Comparative binding of photosensitizers to iron:carbon particles; format: physicochemical; details: 80 mcg/ml (0.11 mM) in PBS pH 7.4, 50 mg particles
Text: (§2) Certain porphyrins are photosensitizing compounds useful in photodynamic therapy against tumors. […] Several classes of photosensitizers were screened for comparative binding to iron:carbon particles of various composition. The wavelength near the activation wavelength (often the λmax) of a particular photosensitizer was used for quantitative drug measurements. […] The photosensitizers tested were hematoporphyrin derivative (HPD); benzoporphyrin derivative monoacid A (BPD-ma); Photofrin® porfimer sodium (PF2); and clorin e6. For the binding studies, 10 mg of carbon or 50 mg of iron:carbon particles were optimum. An octanol/buffer (pH 7.4) partition coefficient for the four compounds was as follows: HPD=1; chlorin e6=1.1; PF2=0.1≧; and BPD-ma=4000>.

[8] = Octanol/buffer (pH 7.4) partition coefficient; format: physicochemical
Text: as §2

[9] = Binding and release of BPD-ma with prototype iron:carbon carrier particles (MTCs); format: physicochemical; details: from a 10-fold increase in the initial concentration of the drug; isopropanol medium, 18 hours
Description: In order to achieve higher loading levels of BPD-ma, the binding capacity and fractional binding of the drug to four prototype iron:carbon carrier particles (MTCs, or, magnetic targeted compounds) was tested using 1.4 mM drug in isopropanol (with 0.5% 0.02 M acetic acid) as the adsorption medium and a longer equilibration period of 18 hours.

[10] = 80:20 Type K, 0.9% NaCl, pH 10.4, equilibration 2 hrs
[11] = 75:25 Type K, Saline solution, equilibration 0.5 hr

Molecule | % binding, % ([7]; iron:carbon 30:70 Type A) | % binding, mg/mg % ([7]; iron:carbon 30:70 Type A) | % binding, % ([7]; iron:carbon 30:70 Type E) | % binding, mg/mg % ([7]; iron:carbon 30:70 Type E) | octanol/buffer partition coefficient [8] | also measured
Sc1ncnc2nc[nH]c12.[Na] [6-MP Mercaptopurine, 6-Mercaptopurine sodium salt] |  |  |  |  |  | Adsorption constant [1, 10]: 0.24 ± 0.064 (mg/ml)^−1; Maximum adsorption (% of carrier weight) [1, 10]: 11.0 ± 0.97 % of carrier weight
C[C@@H]1[C@H](O)[C@@H](C)/C=C/C=C/C=C/C=C/C=C/C=C/C=C/[C@H](O[C@@H]2O[C@H](C)[C@@H](O)[C@H](N)[C@@H]2O)C[C@@H]2O[C@](O)(C[C@@H](O)C[C@@H](O)[C@H](O)CC[C@@H](O)C[C@@H](O)CC(=O)O[C@H]1C)C[C@H](O)[C@H]2C(=O)O [Amphotericin B] |  |  |  |  |  | Maximum adsorption (% of carrier weight) ([1]; 80:20 Type K, 0.9% NaCl pH 12 (KOH), equilibration 24 hrs): 10.4 ± 0.55 % of carrier weight
CC[C@@]1(O)C(=O)OCc2c1cc1n(c2=O)Cc2cc3ccccc3nc2-1 [Camptothecin] |  |  |  |  |  | Adsorption constant [1, 11]: 521 (mg/ml)^−1; Maximum adsorption (% of carrier weight) [1, 11]: 11 % of carrier weight; Maximum adsorption (% of carrier weight) ([1]; 80:20 Type K, C/E 1:1 (chloroform:ethanol), equilibration 3 hrs, footnote: Below detection limit): 0^2 % of carrier weight
[Re] [Re, rhenium] |  |  |  |  |  | Re binding to a series of carbons ([2]; 30 mg carbon in the adsorption medium): about 35%; Re binding to a series of carbons ([2]; 180 mg carbon in the adsorption medium): about 90%; Re released over 24 hours ([3]; from iron:carbon carrier particles, efflux conditions in saline): Less than 10%; release of Re over 24 hours ([3]; from the various carbons preloaded with Re, physiological saline, ambient temperature): 50 % by weight
COc1cccc2c1C(=O)c1c(O)c3c(c(O)c1C2=O)C[C@@](O)(C(=O)CO)C[C@@H]3O[C@H]1C[C@H](N)[C@H](O)[C@H](C)O1 [doxorubicin] |  |  |  |  |  | adsorption of Dox to the carrier particles by adsorption medium [4]: highest adsorption of Dox to the carrier particles was obtained using formulae 4, 5, and 6
CC(=O)O[C@H]1C(=O)[C@@]2(C)[C@H]([C@H](OC(=O)c3ccccc3)[C@]3(O)C[C@H](OC(=O)[C@H](O)[C@@H](NC(=O)c4ccccc4)c4ccccc4)C(C)=C1C3(C)C)[C@]1(OC(C)=O)CO[C@@H]1C[C@@H]2O [paclitaxel] |  |  |  |  |  | IC50 (tumor cells in culture): 5 ng/mL (≈ 5.86 nM); IC50 [5]: 3 ng/mL (≈ 3.51 nM)
COc1cccc2c1C(=O)c1c(O)c3c(c(O)c1C2=O)C[C@@](O)(C(C)=O)C[C@@H]3O[C@H]1C[C@H](N)[C@H](O)[C@H](C)O1 [rubomicine] |  |  |  |  |  | life span following treatment increased by an average of [6]: 4.5 days
Photofrin® porfimer sodium [PF2] | 11.4% | 0.13 mg/mg % | 7.2% | 0.08 mg/mg % | ≤ 0.1 | 
benzoporphyrin derivative monoacid A [BPD-ma] | 30.1% | 0.33 mg/mg % | 23.0% | 0.25 mg/mg % | > 4000 | increase in binding capacity [9]: 30 fold
clorin e6 | 69.9% | 0.8 mg/mg % | 68.8% | 0.7 mg/mg % | 1.1 | 
hematoporphyrin derivative [HPD] | 41.9% | 0.5 mg/mg % | 37.0% | 0.4 mg/mg % | 1 | 
